Measured values: patent US5821386A (priority 1997, dated 1998)
Where “and” joins values, the source holds several entries; their conditions need not be identical. Identical values can stand only once. Entries after “also recorded” stand apart in the source; their conditions may differ. Like-named read-outs stand apart in the source and are kept apart here.

Assays:
[1] = target: T1, human dopamine transporter (Homo sapiens, UniProt Q01959); test: [3H]dopamine uptake by C6-hDAT cells; conditions: for IC50: Inhibition of DA uptake, IC50, C6-hDAT cells; for DA uptake/binding: ratio
Experimental: Drugs (10 mM stock solution) were dissolved in DMSO. The final DMSO concentration in the assay is 0.01 percent. Pipetting was performed with a Biomek 2000 robotic work station.
Uptake was initiated with the addition of [3H]DA (20 nM, specific acitivity 20-53 Ci/mmol) in a final volume of 500 μl. Mazindol (5 μM) was used to define nonspecific uptake. Cells were preincubated for 10 minutes, with drug before addition of neurotransmitter. Uptake was terminated after a 2 minute incubation by removing buffer, and the plate was placed on ice and washed twice with 1 ml ice cold phosphate-buffered saline.

[2] = target: T2, human norepinephrine transporter (Homo sapiens, UniProt P23975); test: cell-based; assay type: cell-based
T2 construct: expressed in transfected cells; host or cells: HEK cells (HEK-hNET)

[3] = target: T3, human serotonin transporter (Homo sapiens, UniProt P31645); test: [125I]RTI-55 binding to serotonin transporter, HEK-hSERT cells
T3 construct: expressed in transfected cells; host or cells: HEK cells (HEK-hSERT)

[4] = target: T2, human norepinephrine transporter; test: biochemical; assay type: binding
[5] = target: T3, human serotonin transporter; test: [3H]serotonin uptake by HEK-hSERT cells; assay type: cell-based; conditions: for inhibition of serotonin reuptake: Example 5; for IC50: Inhibition of 5HT uptake, IC50, HEK-hSERT cells; for 5HT uptake/binding: ratio; for 5HT/DA uptake: selectivity ratio
[6] = Dose response study of induced locomotor stimulation (Example 2, Table I); assay type: in vivo, male Swiss-Webster mice; conditions: IP; for Maximal Effect Relative to Cocaine / ED50: Table I; for ED50: Mus musculus, 30-60 minutes period, read-out: ED50 (dose producing 1/2 maximal stimulant activity)
[7] = target: T1, human dopamine transporter; test: [125I]RTI-55 binding to dopamine transporter, C6-hDAT cells; parameters: expressed in transfected cells; host or cells: C6 cells (C6-hDAT); conditions: read-out: Binding to DA cloned transporter, [I125]RTI-55 Ki
[8] = Interaction study: antagonism of cocaine-induced locomotor stimulation (Example 3); conditions: for effect on the stimulant effect of cocaine (words): IP, 20 mg/kg cocaine, mice; for p, one-way ANOVA, overall effect for treatment groups: log10 horizontal activity counts, 0-30 minutes
[9] = Eight hour time course of locomotor stimulation, cocaine alone and Compound 2 alone (Example 4); conditions: for p, two-way ANOVA, effect of Treatment: horizontal activity counts/10 min, eight hours; for p, one-way ANOVA, effect of Treatment: log10 horizontal activity counts
[10] = human, hek-hnet and c6-hdat cells
[11] = HEK-hNET cells, read-out: Inhibition of NE uptake, IC50
[12] = HEK-hNET cells, read-out: Binding to NE cloned transporter, [I125]RTI-55 Ki
[13] = IP, 10, 20 and 40 mg/kg cocaine

T1 sequence (Q01959 whole entry): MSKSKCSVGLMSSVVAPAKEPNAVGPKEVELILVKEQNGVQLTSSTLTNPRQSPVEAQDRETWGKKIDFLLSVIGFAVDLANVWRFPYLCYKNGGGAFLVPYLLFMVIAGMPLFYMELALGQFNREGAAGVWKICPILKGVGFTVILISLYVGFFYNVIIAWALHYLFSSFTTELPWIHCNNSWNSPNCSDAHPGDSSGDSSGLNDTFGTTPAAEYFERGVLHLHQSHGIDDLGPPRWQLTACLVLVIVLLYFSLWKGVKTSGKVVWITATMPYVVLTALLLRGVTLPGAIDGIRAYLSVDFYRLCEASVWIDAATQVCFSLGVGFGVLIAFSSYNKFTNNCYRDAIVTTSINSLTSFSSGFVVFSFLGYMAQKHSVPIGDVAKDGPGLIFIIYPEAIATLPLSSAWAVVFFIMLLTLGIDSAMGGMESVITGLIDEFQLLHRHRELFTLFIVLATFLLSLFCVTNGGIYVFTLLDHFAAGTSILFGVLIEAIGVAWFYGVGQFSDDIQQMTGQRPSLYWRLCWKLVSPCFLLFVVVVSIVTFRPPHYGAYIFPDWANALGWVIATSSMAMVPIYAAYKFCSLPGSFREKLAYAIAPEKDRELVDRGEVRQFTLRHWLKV
T2 sequence (P23975 whole entry): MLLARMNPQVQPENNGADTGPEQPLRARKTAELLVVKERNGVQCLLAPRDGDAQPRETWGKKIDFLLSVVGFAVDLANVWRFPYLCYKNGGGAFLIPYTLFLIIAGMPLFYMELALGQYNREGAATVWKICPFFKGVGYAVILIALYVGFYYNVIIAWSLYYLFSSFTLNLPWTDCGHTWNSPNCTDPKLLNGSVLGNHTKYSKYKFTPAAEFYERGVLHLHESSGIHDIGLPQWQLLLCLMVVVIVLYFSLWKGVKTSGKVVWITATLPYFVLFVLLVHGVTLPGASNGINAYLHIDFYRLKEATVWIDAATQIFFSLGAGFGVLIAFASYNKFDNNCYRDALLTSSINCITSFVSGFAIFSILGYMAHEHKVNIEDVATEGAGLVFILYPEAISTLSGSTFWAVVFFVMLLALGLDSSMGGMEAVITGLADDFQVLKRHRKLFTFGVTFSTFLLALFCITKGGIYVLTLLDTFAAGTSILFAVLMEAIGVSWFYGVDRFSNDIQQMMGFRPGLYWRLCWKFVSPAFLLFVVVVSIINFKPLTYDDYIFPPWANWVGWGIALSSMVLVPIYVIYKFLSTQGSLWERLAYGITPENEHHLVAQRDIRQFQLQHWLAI
T3 sequence (P31645 whole entry): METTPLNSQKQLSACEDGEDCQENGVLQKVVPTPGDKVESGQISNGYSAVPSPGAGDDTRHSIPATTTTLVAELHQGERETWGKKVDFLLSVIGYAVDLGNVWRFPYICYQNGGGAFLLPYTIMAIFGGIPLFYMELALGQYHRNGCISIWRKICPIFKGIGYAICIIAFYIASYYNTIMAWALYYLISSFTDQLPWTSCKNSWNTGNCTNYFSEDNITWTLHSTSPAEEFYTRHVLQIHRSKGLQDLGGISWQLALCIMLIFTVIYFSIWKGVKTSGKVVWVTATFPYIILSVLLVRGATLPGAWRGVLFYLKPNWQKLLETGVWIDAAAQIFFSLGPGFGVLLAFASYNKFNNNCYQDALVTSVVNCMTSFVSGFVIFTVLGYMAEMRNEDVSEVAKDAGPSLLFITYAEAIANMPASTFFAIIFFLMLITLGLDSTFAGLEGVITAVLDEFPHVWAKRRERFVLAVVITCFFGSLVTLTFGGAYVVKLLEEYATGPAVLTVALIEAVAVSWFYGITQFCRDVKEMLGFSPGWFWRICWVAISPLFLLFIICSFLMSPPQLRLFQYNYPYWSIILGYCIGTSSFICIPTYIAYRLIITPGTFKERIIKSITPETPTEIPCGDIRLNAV

SMILES | IC50 [1] | DA uptake/binding [1] | NE/DA uptake [2, 10] | NE uptake/binding ([2]; human, hek-hnet cells) | Ki [3] [nM] | IC50 [5] | 5HT uptake/binding [5] | 5HT/DA uptake [5] | Maximal Effect Relative to Cocaine [6] | ED50 ([6]; mice) [mg/kg] | Ki [7] [nM] | effect on the stimulant effect of cocaine (words) ([8]; 20 mg/kg) | p, one-way ANOVA, overall effect for treatment groups [8] | IC50 [2, 11] | further results
CN(C)C1CC(c2ccc(Cl)c(Cl)c2)c2ccccc21 (stereo not shown) [Compound 1] | 190 ± 20 nM | 6.6 | 0.38 | 0.19 | 3.1 ± 1.2 | 6.7 ± 2.2 nM | 2.2 | 0.035 | 0.82 | 4.88 | 29 ± 6 | – | – | – | inhibition of norepinephrine reuptake [2]: selectively inhibits serotonin and norepinephrine reuptake; IC50 ([2]; Inhibition of NE uptake, IC50): 72 ± 40 nM; Ki ([4]; Binding to NE cloned transporter, [I125]RTI-55 Ki): 370 ± 60 nM; inhibition of serotonin reuptake [5]: selectively inhibits serotonin and norepinephrine reuptake
CCCN(C)C1CC(c2ccc(Cl)c(Cl)c2)c2ccccc21 (stereo not shown) [Compound 2] | 340 nM and 190 nM | 1.4 and 1.1 | 1.9 and 2.2 | 1.6 | 44 ± 6 | 190 nM and 1500 nM | – | – | 0.51 | 5.65 | 180 ± 100 | antagonized the stimulant effect of cocaine | > 0.05 | 640 nM and 420 nM | effect on the stimulant effect of cocaine (words) ([8]; listed as Compounds 2, 20 mg/kg): Block the Effects of Cocaine in Mice; dose at maximum effect ([9]; Compound 2 IP, 280-310 min): 12.9 mg/kg; maximum effect estimated from fitted dose-response curve ([9]; Compound 2 IP, 280-310 min, vehicle constant 399): 4581 counts/10 min; duration of stimulant effects ([9]; IP, Compound 2, 3 to 30 mg/kg): Up to Seven; p, two-way ANOVA, effect of Treatment [9]: < 0.001; p, one-way ANOVA, effect of Treatment ([9]; 280-310 min): < 0.001; inhibition of norepinephrine reuptake ([2]; Example 5): reduced inhibition of serotonin and norepinephrine reuptake; Ki [4, 12]: 400 nM and 260 nM; inhibition of serotonin reuptake [5]: reduced inhibition of serotonin and norepinephrine reuptake
CCN(C)C1CC(c2ccc(Cl)c(Cl)c2)c2ccccc21 (stereo not shown) [Compound 3] | 270 ± 30 nM | 6.9 | – | – | – | 24 ± 7 nM | 1.5 | 0.10 | 0.93 | 10.8 | – | – | – | – | –
CCNC1CC(c2ccc(Cl)c(Cl)c2)c2ccccc21 (stereo not shown) [Compound 4] | 61 ± 12 nM | 7.5 | – | – | 2 ± 0.8 | 13 ± 4 nM | 6.5 | 0.21 | 1.07 | 3.9 | – | – | – | – | –
CC(C)(C)NC1CC(c2ccc(Cl)c(Cl)c2)c2ccccc21 (stereo not shown) [Compound 6] | 370 ± 170 nM | 2.8 | – | – | – | 3100 ± 1200 nM | 4.2 | 8.4 | – | 506 | – | Block the Effects of Cocaine in Mice; also recorded: antagonized the stimulant effect of cocaine | < 0.5 | 310 ± 50 nM | NE uptake/binding ([2]; ratio): 2.1; NE/DA uptake ([2]; selectivity ratio): 0.84
CN(C1CC(c2ccc(Cl)c(Cl)c2)c2ccccc21)C(C)(C)C (stereo not shown) [Compound 7] | 2700 ± 1500 nM | 3.0 | – | – | – | > 10000 nM | – | – | – | – | – | Block the Effects of Cocaine in Mice; also recorded: antagonized the stimulant effect of cocaine; also recorded: lock the effects of cocaine in laboratory mice | < 0.5 | – | effect on locomotor activity ([6]; mice): inhibited locomotor activity; also recorded: reducing locomotor activity
CC(C)N(C)C1CC(c2ccc(Cl)c(Cl)c2)c2ccccc21 (stereo not shown) [Compound 8] | 53 ± 1 nM | 0.24 | – | – | – | – | – | – | – | – | 220 ± 40 | – | – | – | –
CCCNC1CC(c2ccc(Cl)c(Cl)c2)c2ccccc21 (stereo not shown) [Compound 9] | 51 ± 21 nM | 1.6 | 1.5 | 0.68 | 93 ± 9 | 240 ± 70 nM | 2.6 | 4.7 | – | – | 32 ± 6 | – | – | 75 ± 35 nM | Ki [4, 12]: 110 ± 50 nM
CN(Cc1ccccc1)C1CC(c2ccc(Cl)c(Cl)c2)c2ccccc21 (stereo not shown) [Compound 10] | 550 ± 200 nM | 4.6 | – | – | – | 3700 ± 1300 nM | 21. | 6.7 | – | – | – | – | – | – | –
COC(=O)[C@H]1[C@@H](OC(=O)c2ccccc2)C[C@@H]2CC[C@H]1N2C [cocaine] | – | – | – | – | – | – | – | – | – | – | – | – | – | – | time of maximal stimulant effects ([9]; IP, 20 mg/kg cocaine): during the first 30 minutes; duration of stimulant effects [9, 13]: up to 3 hours; onset of stimulant effects [9, 13]: ≤ 10 min; dose at maximum effect ([9]; cocaine IP, first 30 minutes): 18.3 mg/kg; maximum effect estimated from fitted dose-response curve ([9]; cocaine IP, first 30 minutes, vehicle constant 3172): 6059 counts/10 min; p, two-way ANOVA, effect of Treatment [9]: 0.089; p, one-way ANOVA, effect of Treatment ([9]; 0-30 min): < 0.001
